Measured values reported in ChEMBL document CHEMBL4270521, “Design, synthesis and biological evaluation of a series of novel 2-benzamide-4-(6-oxy-N-methyl-1-naphthamide)-pyridine derivatives as potent fibroblast growth factor receptor (FGFR) inhibitors” (Eur J Med Chem, 2018).

Assays:
[1] = target: Fibroblast growth factor receptor 1 (Homo sapiens, UniProt P11362); assay: Inhibition of recombinant FGFR1 (unknown origin) using poly (Glu, Tyr) 4:1 as substrate after 60 mins by ELISA based spectrophotometric method
KG-1 = assay: Antiproliferative activity against human KG1 cells expressing FGFR1 after 72 hrs; type: functional, cell-based; settings: KG-1, 72 h
NCI-H1581 = assay: Antiproliferative activity against human NCI-H1581 cells expressing FGFR1 after 72 hrs; type: functional, cell-based; settings: NCI-H1581, 72 h
SNU-16 [2] = assay: Antiproliferative activity against human SNU16 cells expressing FGFR2 after 72 hrs; type: functional, cell-based; settings: SNU-16, 72 h
RT-112 = assay: Antiproliferative activity against human RT112 cells expressing FGFR3 after 72 hrs; type: functional, cell-based; settings: RT-112, 72 h
[3] = Antiproliferative activity against human UM-UC-14 cells expressing FGFR3 after 72 hrs; type: functional, cell-based; settings: UMUC14, 72 h
BaF3 = assay: Antiproliferative activity against mouse BAF3 cells expressing VEGFR2 after 72 hrs; type: functional, cell-based; settings: BaF3, 72 h
[4] = Aqueous solubility of the compound; type: physicochemical; settings: buffer
SNU-16 [5] = assay: Antitumor activity against human SNU16 cells xenografted in nude mouse assessed as tumor growth inhibition at 10 mg/kg, ip qd administered for 21 consecutive days and measured twice per week relative to control; type: functional; settings: SNU-16, ip, read-out: TGI
SNU-16 [6] = assay: Antitumor activity against human SNU16 cells xenografted in nude mouse assessed as tumor growth inhibition at 50 mg/kg, ip qd administered for 21 consecutive days and measured twice per week relative to control; type: functional; settings: SNU-16, ip, read-out: TGI
Mus musculus = assay: Toxicity in nude mouse xenografted with human SNU16 cells assessed as body weight loss at 10 to 50 mg/kg, ip qd administered for 21 consecutive days and measured twice per week; type: organism-based; settings: in vivo
SNU-16 [7] = settings: Homo sapiens
Description: Antitumor activity against human SNU16 cells xenografted in nude mouse assessed as tumor growth inhibition administered ip qd for 21 consecutive days and measured twice per week

[8] = target: Fibroblast growth factor receptor 2 (Homo sapiens, UniProt P21802); assay: Inhibition of recombinant FGFR2 (unknown origin) using poly (Glu, Tyr) 4:1 as substrate after 60 mins by ELISA based spectrophotometric method
[9] = target: T1, Fibroblast growth factor receptor 3 (Homo sapiens, UniProt P22607); assay: Inhibition of recombinant FGFR3 (unknown origin) using poly (Glu, Tyr) 4:1 as substrate after 60 mins by ELISA based spectrophotometric method
[10] = target: Vascular endothelial growth factor receptor 2 (Homo sapiens, UniProt P35968); assay: Inhibition of recombinant VEGFR2 (unknown origin) using poly (Glu, Tyr) 4:1 as substrate after 60 mins by ELISA based spectrophotometric method
[11] = Half life in Sprague-Dawley rat at 3 mg/kg, po administered via gavage by LC-MS/MS analysis; type: ADME, organism-based; settings: in vivo
[12] = Half life in Sprague-Dawley rat at 1 mg/kg, iv by LC-MS/MS analysis; type: ADME, organism-based; settings: in vivo
[13] = AUClast in Sprague-Dawley rat at 3 mg/kg, po administered via gavage by LC-MS/MS analysis; type: ADME, organism-based; parameters: dose 3 mg/kg, time 0 - last, route oral; settings: in vivo
[14] = AUClast in Sprague-Dawley rat at 1 mg/kg, iv by LC-MS/MS analysis; type: ADME, organism-based; parameters: dose 1 mg/kg, time 0 - last, route intravenous; settings: in vivo
[15] = AUCinfinity in Sprague-Dawley rat at 3 mg/kg, po administered via gavage by LC-MS/MS analysis; type: ADME, organism-based; parameters: dose 3 mg/kg, time infinity, route oral; settings: in vivo
[16] = AUCinfinity in Sprague-Dawley rat at 1 mg/kg, iv by LC-MS/MS analysis; type: ADME, organism-based; parameters: dose 1 mg/kg, route intravenous, time infinity; settings: in vivo
[17] = Clearance in Sprague-Dawley rat at 1 mg/kg, iv by LC-MS/MS analysis; type: ADME, organism-based; settings: in vivo
[18] = Volume of distribution at steady state in Sprague-Dawley rat at 1 mg/kg, iv by LC-MS/MS analysis; type: ADME, organism-based; settings: in vivo, read-out: Vdss
[19] = Oral bioavailability in Sprague-Dawley rat at 3 mg/kg administered via gavage by LC-MS/MS analysis; type: ADME, organism-based; settings: in vivo
[20] = target: T1, Fibroblast growth factor receptor 3; assay: Inhibition of FGFR3 (unknown origin)

Chain of Fibroblast growth factor receptor 1 (P11362 whole entry): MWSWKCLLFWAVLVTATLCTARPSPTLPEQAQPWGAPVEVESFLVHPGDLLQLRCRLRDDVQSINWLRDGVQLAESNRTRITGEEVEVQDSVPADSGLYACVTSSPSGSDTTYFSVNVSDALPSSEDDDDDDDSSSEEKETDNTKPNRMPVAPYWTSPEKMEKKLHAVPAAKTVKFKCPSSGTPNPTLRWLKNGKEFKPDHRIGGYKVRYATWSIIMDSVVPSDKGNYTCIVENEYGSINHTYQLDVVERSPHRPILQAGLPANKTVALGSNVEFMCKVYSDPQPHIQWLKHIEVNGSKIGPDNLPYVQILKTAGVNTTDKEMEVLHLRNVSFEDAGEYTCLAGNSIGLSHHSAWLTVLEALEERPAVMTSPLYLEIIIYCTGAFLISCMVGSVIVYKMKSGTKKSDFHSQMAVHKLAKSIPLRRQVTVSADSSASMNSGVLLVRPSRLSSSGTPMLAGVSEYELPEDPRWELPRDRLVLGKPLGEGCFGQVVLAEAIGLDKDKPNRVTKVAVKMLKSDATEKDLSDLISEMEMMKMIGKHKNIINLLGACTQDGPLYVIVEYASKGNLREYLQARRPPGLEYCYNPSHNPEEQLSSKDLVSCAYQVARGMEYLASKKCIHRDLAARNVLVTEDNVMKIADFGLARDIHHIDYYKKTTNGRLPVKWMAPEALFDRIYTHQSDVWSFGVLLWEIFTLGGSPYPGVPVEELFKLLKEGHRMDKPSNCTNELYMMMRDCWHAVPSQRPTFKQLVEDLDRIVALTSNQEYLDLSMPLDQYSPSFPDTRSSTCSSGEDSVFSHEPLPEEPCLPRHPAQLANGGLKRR
T1 sequence (P22607 whole entry): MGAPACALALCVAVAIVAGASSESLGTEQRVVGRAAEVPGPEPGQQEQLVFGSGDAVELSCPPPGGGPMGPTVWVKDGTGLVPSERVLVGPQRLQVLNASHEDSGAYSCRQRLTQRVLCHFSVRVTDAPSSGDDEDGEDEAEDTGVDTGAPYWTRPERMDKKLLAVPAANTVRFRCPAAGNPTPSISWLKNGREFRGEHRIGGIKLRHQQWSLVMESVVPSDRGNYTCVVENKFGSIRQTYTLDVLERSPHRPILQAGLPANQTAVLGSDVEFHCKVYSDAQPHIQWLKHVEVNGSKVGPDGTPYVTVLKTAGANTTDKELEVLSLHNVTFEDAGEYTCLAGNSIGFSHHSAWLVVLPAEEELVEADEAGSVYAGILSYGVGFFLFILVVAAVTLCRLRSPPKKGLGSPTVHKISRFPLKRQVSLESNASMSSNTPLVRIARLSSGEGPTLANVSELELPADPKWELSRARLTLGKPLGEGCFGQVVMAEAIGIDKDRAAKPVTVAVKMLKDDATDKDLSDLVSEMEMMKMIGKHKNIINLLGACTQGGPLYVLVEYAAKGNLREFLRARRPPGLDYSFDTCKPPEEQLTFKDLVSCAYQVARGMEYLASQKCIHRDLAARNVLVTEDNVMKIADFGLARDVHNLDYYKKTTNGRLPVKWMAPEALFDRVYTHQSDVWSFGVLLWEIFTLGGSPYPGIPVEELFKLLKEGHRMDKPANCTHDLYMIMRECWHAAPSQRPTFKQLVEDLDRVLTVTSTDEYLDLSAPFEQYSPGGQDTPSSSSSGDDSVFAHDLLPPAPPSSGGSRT
Chain of Vascular endothelial growth factor receptor 2 (P35968 whole entry): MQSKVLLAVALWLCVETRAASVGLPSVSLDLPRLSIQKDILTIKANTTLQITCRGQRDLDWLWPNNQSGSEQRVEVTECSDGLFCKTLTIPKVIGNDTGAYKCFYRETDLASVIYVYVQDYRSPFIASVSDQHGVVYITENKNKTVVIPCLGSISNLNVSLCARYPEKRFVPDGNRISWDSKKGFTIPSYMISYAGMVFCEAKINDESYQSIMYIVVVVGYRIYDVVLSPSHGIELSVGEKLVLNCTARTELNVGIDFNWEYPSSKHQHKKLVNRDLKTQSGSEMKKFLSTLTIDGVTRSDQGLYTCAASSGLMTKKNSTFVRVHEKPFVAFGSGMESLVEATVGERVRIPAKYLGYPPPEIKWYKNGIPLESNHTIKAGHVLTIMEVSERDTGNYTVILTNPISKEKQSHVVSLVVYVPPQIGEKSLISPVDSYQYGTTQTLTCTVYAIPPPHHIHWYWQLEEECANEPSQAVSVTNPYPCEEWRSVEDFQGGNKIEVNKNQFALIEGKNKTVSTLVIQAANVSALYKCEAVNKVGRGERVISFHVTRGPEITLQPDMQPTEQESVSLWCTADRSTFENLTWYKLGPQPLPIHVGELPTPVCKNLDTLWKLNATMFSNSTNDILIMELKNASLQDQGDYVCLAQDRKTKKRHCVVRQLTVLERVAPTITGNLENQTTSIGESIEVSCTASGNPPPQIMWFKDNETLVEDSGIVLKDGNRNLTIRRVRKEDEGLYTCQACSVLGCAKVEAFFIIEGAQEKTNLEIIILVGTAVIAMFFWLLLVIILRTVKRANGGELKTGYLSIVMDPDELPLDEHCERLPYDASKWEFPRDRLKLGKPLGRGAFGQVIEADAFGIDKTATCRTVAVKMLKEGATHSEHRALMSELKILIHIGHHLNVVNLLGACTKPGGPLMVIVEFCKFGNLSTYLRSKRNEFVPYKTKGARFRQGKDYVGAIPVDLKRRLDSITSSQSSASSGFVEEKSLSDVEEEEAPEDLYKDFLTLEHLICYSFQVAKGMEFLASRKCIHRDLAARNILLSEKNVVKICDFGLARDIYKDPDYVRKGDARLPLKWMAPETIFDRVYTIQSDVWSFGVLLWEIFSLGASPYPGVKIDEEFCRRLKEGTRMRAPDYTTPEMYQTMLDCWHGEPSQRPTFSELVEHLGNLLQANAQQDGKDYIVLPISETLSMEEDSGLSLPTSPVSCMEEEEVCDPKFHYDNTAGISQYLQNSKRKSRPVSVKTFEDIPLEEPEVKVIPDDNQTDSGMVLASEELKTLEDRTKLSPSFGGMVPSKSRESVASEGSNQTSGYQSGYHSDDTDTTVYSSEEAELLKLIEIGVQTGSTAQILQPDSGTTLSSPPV
Chain of Fibroblast growth factor receptor 2 (P21802 whole entry): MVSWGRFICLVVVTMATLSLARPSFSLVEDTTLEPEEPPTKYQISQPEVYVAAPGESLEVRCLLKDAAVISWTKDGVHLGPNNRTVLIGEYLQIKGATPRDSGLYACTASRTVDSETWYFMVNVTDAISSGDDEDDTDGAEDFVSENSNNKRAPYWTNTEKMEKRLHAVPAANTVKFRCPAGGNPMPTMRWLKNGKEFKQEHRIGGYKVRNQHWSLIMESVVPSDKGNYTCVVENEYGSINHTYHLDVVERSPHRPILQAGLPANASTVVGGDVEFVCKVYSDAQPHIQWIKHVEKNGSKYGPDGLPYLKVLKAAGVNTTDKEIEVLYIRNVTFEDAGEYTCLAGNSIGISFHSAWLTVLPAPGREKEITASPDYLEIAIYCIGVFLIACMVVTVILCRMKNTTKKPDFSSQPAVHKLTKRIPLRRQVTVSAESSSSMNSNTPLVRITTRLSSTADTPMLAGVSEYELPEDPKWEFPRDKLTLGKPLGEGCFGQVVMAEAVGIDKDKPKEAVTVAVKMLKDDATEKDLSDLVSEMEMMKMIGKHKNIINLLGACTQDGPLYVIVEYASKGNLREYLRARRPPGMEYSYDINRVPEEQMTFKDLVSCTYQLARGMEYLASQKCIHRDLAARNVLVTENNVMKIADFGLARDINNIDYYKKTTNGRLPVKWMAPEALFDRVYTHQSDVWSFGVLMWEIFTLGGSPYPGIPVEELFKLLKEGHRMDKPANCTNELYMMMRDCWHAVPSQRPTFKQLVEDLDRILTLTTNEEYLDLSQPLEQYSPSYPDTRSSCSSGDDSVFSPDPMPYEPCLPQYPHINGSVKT

Row | SMILES | IC50 [1] [nM] | IC50 (KG-1) [nM] | other results
1 | COc1cc(CCc2cc(NC(=O)c3ccc(N4C[C@@H](C)N[C@@H](C)C4)cc3)n[nH]2)cc(OC)c1 [FEXAGRATINIB] | – | 1.9 to 8.7 | IC50 (NCI-H1581): 40 nM; IC50 (SNU-16 [2]): 6.2 nM; IC50 (RT-112): 83.8 nM; IC50 [3]: 26.9 nM; IC50 (BaF3): 222 nM
2 | CNC(=O)c1cccc2cc(Oc3ccnc(NC(=O)c4ccc(N5CCN(C)CC5)cc4)c3)ccc12.Cl.Cl | – | – | solubility [4]: Soluble; inhibition in vivo at 10 mg/kg (SNU-16 [5]): 25%; inhibition in vivo at 50 mg/kg (SNU-16 [6]): 81%; Activity (Mus musculus): Non-Toxic
3 | CC(Oc1ccc(NC(=O)c2ccc(N3C[C@@H](C)N[C@@H](C)C3)cc2)nc1)c1c(Cl)cncc1Cl (some centres undefined) | > 1000 | – | –
4 | CNC(=O)c1cccc2cc(Oc3ccnc(NC(=O)c4ccc(OCCN5CC(F)(F)C5)cc4)c3)ccc12 | 6.1 | < 4.1 | –
5 | CCNC(=O)N1CCCc2cc(Oc3ccnc(NC(=O)c4ccc(N5C[C@@H](C)N[C@@H](C)C5)cc4)c3)ccc21 | 132 | 118 | –
6 | CNC(=O)c1cccc2cc(Oc3ccnc(NC(=O)c4csc(N5CCN(C)CC5)n4)c3)ccc12 | 7.6 | – | –
7 | CNC(=O)c1cccc2cc(Oc3ccnc(NC(=O)c4ccc(OCCN5CCCC5)cc4)c3)ccc12 | 4.1 | < 4.1 | –
8 | CCNC(=O)Nc1ccc(Oc2ccnc(NC(=O)c3ccc(N4C[C@@H](C)N[C@@H](C)C4)cc3)c2)c(OC)c1 | 36.1 | 548 | –
9 | CNC(=O)c1cccc2cc(Oc3ccnc(NC(=O)c4cnn(CCO)c4)c3)ccc12 | 23.5 | 278 | –
10 | CNC(=O)c1cccc2cc(Oc3ccnc(NC(=O)c4ccc(N5CCN(C)CC5)cc4)c3)ccc12 [listing 1 of 2 here] | – | – | TGI (SNU-16 [7]): Dose-dependent effect
11 | CNC(=O)c1cccc2cc(Oc3ccnc(NC(=O)c4coc(N5CCN(C)CC5)n4)c3)ccc12 | 2.8 | – | –
12 | COc1cc(OC)c(Cl)c(CCOc2ccnc(NC(=O)c3ccc(N4C[C@@H](C)N[C@@H](C)C4)cc3)c2)c1Cl | > 1000 | – | –
13 | CNC(=O)c1cccc2cc(Oc3ccnc(NC(=O)c4ccc(N5CCN(C)CC5)cc4)c3)ccc12 [listing 2 of 2 here] | – | < 0.5 | IC50 (NCI-H1581): 22.3 nM; IC50 (SNU-16 [2]): < 0.5 nM; IC50 (RT-112): 52.6 nM; IC50 [3]: 1.7 nM; IC50 (BaF3): < 1.5 nM; IC50 [8]: 4.5 nM; IC50 [9]: 10.6 nM; IC50 [10]: 2.9 nM; half-life [11]: 111 min; half-life [12]: 53.8 min; AUC(0-t) [13]: 21.4 ng·h/mL; AUC(0-t) [14]: 47.9 ng·h/mL; AUC(0-inf) [15]: 22.7 ng·h/mL; AUC(0-inf) [16]: 49 ng·h/mL; clearance [17]: 346 mL/min/kg; Vd [18]: 16.7 L/kg; bioavailability [19]: 14.9%
14 | CNC(=O)c1cccc2cc(Oc3ccnc4cc(OCC5(N)CC5)c(OC)cc34)ccc12 [LUCITANIB] | – | – | IC50 [20]: 238 nM
15 | C=CC(=O)Nc1ccc(C(=O)Nc2cc(Oc3ccc4c(C(=O)NC)cccc4c3)ccn2)cc1 | 12.8 | 369 | –
16 | COc1cc(OC)c(F)c(COc2ccc(NC(=O)c3ccc(N4C[C@@H](C)N[C@@H](C)C4)cc3)nc2)c1F | 22.2 | 116 | –
17 | CNC(=O)c1cccc2cc(Oc3ccnc(NC(=O)c4ccc(C5CCN(CCO)CC5)cc4)c3)ccc12 | 1.2 | < 4.1 | –
18 | COc1cc(CCOc2ccnc(NC(=O)c3ccc(N4C[C@@H](C)N[C@@H](C)C4)cc3)c2)cc(OC)c1 | > 1000 | – | –
19 | CNC(=O)c1cccc2cc(Oc3ccnc(NC(=O)c4ccc(NCC5(O)CCOCC5)cc4)c3)ccc12 | 6.2 | < 4.1 | –

More lines, main results first:

Row | IC50 [1] [nM] | SMILES | IC50 (KG-1) [nM] | other results
20 | 10.2 | CNC(=O)c1cccc2cc(Oc3ccnc(NC(=O)c4cnc(N5C[C@@H](C)N[C@@H](C)C5)nc4)c3)ccc12 | 30.3 | –
21 | 2 | CNC(=O)c1cccc2cc(Oc3ccnc(NC(=O)c4ccc(N5CCNC(C)C5)cc4)c3)ccc12 (centres undefined) | < 4.1 | –
22 | 7.4 | CNC(=O)c1cccc2cc(Oc3ccnc(NC(=O)c4ccc(OCC5(N)CC5)cc4)c3)ccc12 | 54.5 | –
23 | 4.6 | COC(=O)c1cccc2cc(Oc3ccnc(NC(=O)c4ccc(N5C[C@@H](C)N[C@@H](C)C5)cc4)c3)ccc12 | 159 | –
24 | 285 | CNC(=O)c1cccc2cc(Oc3ccnc(NC(=O)c4ccc(N5C[C@@H](C)N[C@@H](C)C5)cc4OC)c3)ccc12 | – | –
25 | 67.5 | CCNC(=O)Nc1cccc2cc(Oc3ccnc(NC(=O)c4ccc(N5C[C@@H](C)N[C@@H](C)C5)cc4)c3)ccc12 | 504 | –
26 | 1.6 | CNC(=O)c1cccc2cc(Oc3ccnc(NC(=O)c4ccc(C5CCNCC5)cc4)c3)ccc12 | 72.2 | –
27 | 12.9 | CNC(=O)c1cccc2cc(Oc3ccnc(NC(=O)c4ccc(N5C[C@@H](C)N[C@@H](C)C5)cc4C)c3)ccc12 | > 1000 | –
28 | 1.9 | CNC(=O)c1cccc2cc(Oc3ccnc(NC(=O)c4ccc(N5CCN(CCO)CC5)cc4)c3)ccc12 | 5.8 | –
29 | > 1000 | CNC(=O)c1cccc2cc(Oc3ccnc(NC(=O)c4ccc(N5C[C@@H](C)N[C@@H](C)C5)cc4F)c3)ccc12 | – | –
30 | 1.2 | CNC(=O)c1cccc2cc(Oc3ccnc(NC(=O)c4ccc(N5CCOCC5)cc4)c3)ccc12 | 9.3 | –
31 | 1.9 | CNC(=O)c1cccc2cc(Oc3ccnc(NC(=O)c4ccc(N5CC(C)OC(C)C5)cc4)c3)ccc12 (centres undefined) | 154 | –
32 | 3.6 | CNC(=O)c1cccc2cc(Oc3ccnc(NC(=O)c4ccc(OCCN5CC(F)C5)cc4)c3)ccc12 | 5.1 | –
33 | 2.1 | CNC(=O)c1cccc2cc(Oc3ccnc(NC(=O)c4ccc(N5C[C@@H](C)N[C@@H](C)C5)cc4)c3)ccc12 | 14.9 | –
